The assay has as its target T1, DGAT1 (Homo sapiens, UniProt O75907).
T1 sequence (O75907 1-488): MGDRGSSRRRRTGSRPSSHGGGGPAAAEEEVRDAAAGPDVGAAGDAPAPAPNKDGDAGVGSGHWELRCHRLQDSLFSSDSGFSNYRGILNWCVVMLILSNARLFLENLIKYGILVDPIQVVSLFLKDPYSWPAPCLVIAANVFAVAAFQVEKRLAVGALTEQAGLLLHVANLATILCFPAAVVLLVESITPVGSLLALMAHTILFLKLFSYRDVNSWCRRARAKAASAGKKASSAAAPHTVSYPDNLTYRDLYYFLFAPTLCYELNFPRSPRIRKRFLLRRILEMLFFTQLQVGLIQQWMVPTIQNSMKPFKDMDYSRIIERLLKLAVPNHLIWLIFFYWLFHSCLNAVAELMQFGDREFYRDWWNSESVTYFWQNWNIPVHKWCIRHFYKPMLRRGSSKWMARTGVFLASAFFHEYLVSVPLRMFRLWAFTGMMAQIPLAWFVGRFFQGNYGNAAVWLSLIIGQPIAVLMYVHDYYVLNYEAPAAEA
The experiment in a line: Human DGAT1 IC50 enzyme assay (Flashplate, 14C-labeled acyl-CoA). It is filed as biochemical. Details: made in house. The procedure:
The ability of compounds to inhibit DGAT enzyme activity is determined by calculating IC50 values of test compounds. Ki values of DGAT1 are calculated as follows: Cheng-Prusoff equation: Ki=IC50/(1+[S]/Km)
(1) Human DGAT1 IC50 (nM) Experiment
Human DGAT1 activity was determined as follows:
Expressing human DGAT1 enzyme, used diacylglycerol and 14C-labeled acyl-CoA as the substrate, choose PE Company Flashplate testing board to build DGAT1 enzyme reaction system. 14C-labeled acyl-CoA binds to diacylglycerol by covalent bonding after enzymology reaction, and generates the product of 14C-labeled triglyceride. 14C-labeled acyl-CoA substrate is dissolved in reaction solution and 14C-labeled triglyceride product combine with phospholipids of Flashplate plate bottom layer, thus effectively separate labeled substrates and products. The radioactive of 14C-labeled triglyceride which is combined with phospholipid layer is counted, and the potencies of DGAT-1 inhibition for the compounds are determined by calculating the IC50 values.

Where [1] appears, read: average of first and second, read-out: hDGAT1 IC50(nM) Average.
Setting [2] is: first determination, read-out: hDGAT1 IC50(nM) First.
Where [3] appears, read: second determination, read-out: hDGAT1 IC50(nM) Second.

Read-outs that look alike come from different tables or passages of the source.

Consider `Cc1cc(N2CCOc3ncnc(N)c3C2=O)cc(C)c1-c1cnn(CCC(=O)O)c1` [Compound 70, 3-(4-(4-(4-amino-5-oxo-7,8-dihydropyrimido [5,4-f][1,4]oxazepin-6(5H)-yl)-2,6-dimethylphenyl)-1H-pyrazol-1-yl)propanoic acid], for which the IC50 by setting is: under setting [1], 20.4 nM; under setting [2], 27.6 nM; under setting [3], 13.2 nM.
On the same counts, the results for `CC(C)(Cn1cc(-c2ccc(N3CCOc4ncnc(N)c4C3=O)cc2Cl)cn1)C(=O)O` [Compound 71, 3-(4-(4-(4-amino-5-oxo-7,8-dihydropyrimido [5,4-f][1,4]oxazepin-6(5H)-yl)-2-chlorophenyl)-1H-pyrazol-1-yl)-2,2-dimethylpropanoic acid] are 30.6 nM, 35.9 nM and 25.3 nM.
Turning to `Cc1cc(N2CCOc3ncnc(N)c3C2=O)cc(C)c1-c1cn(CC(=O)O)nc1C` [Compound 73, 2-(4-(4-(4-amino-5-oxo-7,8-dihydropyrimido [5,4-f][1,4]oxazepin-6(5H)-yl)-2,6-dimethylphenyl)-3-methyl-1H-pyrazol-1-yl)acetic acid], the IC50 is, setting by setting: under setting [1], 34.4 nM; under setting [2], 24.5 nM; under setting [3], 44.3 nM.
On to `Cc1nn(CCC(=O)O)c(C)c1-c1ccc(N2CCOc3ncnc(N)c3C2=O)cc1` [Compound 76], for which the IC50 is, setting by setting: under setting [1], 23.5 nM; under setting [2], 14.6 nM; under setting [3], 32.4 nM.
With `Cc1nn(CCC(=O)O)cc1-c1ccc(N2CCOc3ncnc(N)c3C2=O)cc1Cl` [Compound 78, 3-(4-(4-(4-amino-5-oxo-7,8-dihydropyrimido [5,4-f][1,4]oxazepin-6(5H)-yl)-2-chlorophenyl)-3-methyl-1H-pyrazol-1-yl)propanoic acid], the IC50 under setting [1] turned out to be 54.8 nM, the IC50 under setting [2] turned out to be 69.2 nM and the IC50 under setting [3] turned out to be 40.3 nM.
Turning to `CCn1cc(-c2ccc(N3CCOc4ncnc(N)c4C3=O)cc2Cl)cn1` [Compound 79, 4-amino-6-(3-chloro-4-(1-ethyl-1H-pyrazol-4-yl)phenyl)-7,8-dihydropyrimido [5,4-f][1,4]oxazepin-5(6H)-one], the IC50 turned out to be 52.1 nM under setting [1], 46.4 nM under setting [2] and 57.8 nM under setting [3].
With `Cc1cc(N2CCOc3ncnc(N)c3C2=O)cc(C)c1-c1cn(CCC(=O)O)nc1C` [Compound 83, 3-(4-(4-(4-amino-5-oxo-7,8-dihydropyrimido [5,4-f][1,4]oxazepin-6(5H)-yl)-2,6-dimethylphenyl)-3-methyl-1H-pyrazol-1-yl)propanoic acid], the IC50 is, setting by setting: under setting [1], 45.6 nM; under setting [2], 52.8 nM; under setting [3], 38.4 nM.
`CC(C)(Cn1cc(-c2ccc(N3CCOc4ncnc(N)c4C3=O)cc2Cl)cn1)C(=O)N1CCCC1` [Compound 85]: the IC50 under setting [1] was determined as 61.7 nM, the IC50 under setting [2] was determined as 59.6 nM and the IC50 under setting [3] turned out to be 63.7 nM.
On the same counts, the results for `Nc1ncnc2c1C(=O)N(c1ccc(-c3cnn(CC4CC4)c3)c(Cl)c1)CCO2` [Compound 87, 4-amino-6-(3-chloro-4-(1-(cyclopropylmethyl)-1H-pyrazol-4-yl)phenyl)-7,8-dihydropyrimido[5,4-f][1,4]oxazepin-5(6H)-one] are 46.7 nM, 49.3 nM and 44.2 nM.
The matching figures for `CC(C)(C)Cn1cc(-c2ccc(N3CCOc4ncnc(N)c4C3=O)cc2Cl)cn1` [Compound 88]: 25.7 nM, 27 nM and 24.4 nM.
The matching figures for `CN(C)C(=O)C(C)(C)Cn1cc(-c2ccc(N3CCOc4ncnc(N)c4C3=O)cc2Cl)cn1` [Compound 89, 3-(4-(4-(4-amino-5-oxo-7,8-dihydropyrimido [5,4-f][1,4]oxazepin-6(5H)-yl)-2-chlorophenyl)-1H-pyrazol-1-yl)-N,N,2,2-tetramethylpropanamide]: 80.7 nM, 71.2 nM and 90.1 nM.
On to `CCc1cc(N2CCOc3ncnc(N)c3C2=O)ccc1-c1cnn(CC(C)C)c1` [Compound 90, 4-amino-6-(3-ethyl-4-(1-isobutyl-1H-pyrazol-4-yl)phenyl)-7,8-dihydropyrimido [5,4-f][1,4]oxazepin-5(6H)-one], for which the IC50 is 60 nM under setting [1], 62 nM under setting [2] and 58 nM under setting [3].
On the same counts, the results for `CC(C)(F)Cn1cc(-c2ccc(N3CCOc4ncnc(N)c4C3=O)cc2Cl)cn1` [Compound 91, 4-amino-6-(3-chloro-4-(1-(2-fluoro-2-methylpropyl)-1H-pyrazol-4-yl)phenyl)-7,8-dihydropyrimido[5,4-f][1,4]oxazepin-5(6H)-one] are 20 nM, 12.5 nM and 27.5 nM.
As for `Cc1cc(N2CCOc3ncnc(N)c3C2=O)cc(C)c1-c1c(C)nn(CC(F)(F)F)c1C` [Compound 93, 4-amino-6-(4-(3,5-dimethyl-1-(2,2,2-trifluoroethyl)-1H-pyrazol-4-yl)-3,5-dimethylphenyl)-7,8-dihydropyrimido[5,4-f][1,4]oxazepin-5(6H)-one], the IC50 was 69.4 nM under setting [1], 64.5 nM under setting [2] and 74.2 nM under setting [3].
The matching figures for `COC(C)(C)Cn1cc(-c2ccc(N3CCOc4ncnc(N)c4C3=O)cc2Cl)cn1` [Compound 94, 4-amino-6-(3-chloro-4-(1-(2-methoxy-2-methylpropyl)-1H-pyrazol-4-yl)phenyl)-7,8-dihydropyrimido[5,4-f][1,4]oxazepin-5(6H)-one]: 59.1 nM, 63.1 nM and 55.1 nM.
The matching figures for `CC(C)(F)Cn1ccc(-c2ccc(N3CCOc4ncnc(N)c4C3=O)cc2Cl)n1` [Compound 95, 4-amino-6-(3-chloro-4-(1-(2-fluoro-2-methylpropyl)-1H-pyrazol-3-yl)phenyl)-7,8-dihydropyrimido[5,4-f][1,4]oxazepin-5(6H)-one]: 42.5 nM, 32.2 nM and 52.9 nM.
For the compound `CC(C)Cn1cc(-c2ccc(N3C(=O)c4c(N)ncnc4OC[C@H]3C)cc2Cl)cn1` [Compound 96, (R)-4-amino-6-(3-chloro-4-(1-isobutyl-1H-pyrazol-4-yl)phenyl)-7-methyl-7,8-dihydropyrimido[5,4-f][1,4] oxazepin-5-(6H)-one], the IC50 was 70.5 nM under setting [1], 69.4 nM under setting [2] and 71.7 nM under setting [3].
On the same counts, the results for `Cc1cc(N2CCOc3ncnc(N)c3C2=O)cc(C)c1-c1cn(CC(C)(C)F)nc1C` [Compound 97, 4-amino-6-(4-(1-(2-fluoro-2-methylpropyl)-3-methyl-1H-pyrazol-4-yl)-3,5-dimethylphenyl)-7,8-dihydropyrimido[5,4-f][1,4]oxazepin-5(6H)-one] are 26.9 nM, 30.3 nM and 23.4 nM.

The IC50 is the midpoint of a concentration-inhibition curve.

Values taken from patent US9809604B2, “DGAT1 inhibitor and preparation method and use thereof” (Qingdao Huanghai Pharmaceutical Co., Ltd., priority 2013, dated 2017).
